PubChem BioAssay AID2060496 (Molecular Pharmacology Branch, DTP, NCI, 2025)
Several values for one entry are separate records, joined by “and”; a condition that tells them apart may be missing. Equal values may be shown once.

Test system: 276233-004-R-J1-PDC complex spheroid viability
Assay: Anticancer human tumor 276233-004-R-J1-PDC patient-derived colon adenocarcinoma cell line growth inhibition [GQUAD]
Details: for viability, T/C: stronger effect = lower value
Description: DNA G-quadruplex Stabilizer Agents in Combinations in Complex Spheroids
A high-throughput screen of multi-cell type tumor spheroids was designed to identify active combinations of DNA G-quadruplex stabilizer agents and targeted small molecules. Complex spheroids include a stromal component modeled by human endothelial cells (HUVEC) and fibroblasts modeled by human mesenchymal stem cells (MSCs). The concentration ranges selected for each drug and investigational agent were based upon clinically achievable concentrations if the clinical Cmax of the agent was known.
Compounds. The drugs and investigational agents: pidnarulex (CX-5461; NSC782164), APTO-253 (NSC789042), BRACO-19 (NSC847499), peposertib (NSC802822), ceralasertib (NSC780249), elimusertib (NSC800525), camonsertib (NSC841442), AZD-1390 (NSC803789), olaparib (NSC753686), talazoparib (NSC767125), ART-558 (NSC835418), sotorasib (NSC818433), MRTX-1133 (NSC836407), SN-38 (NSC673596), topotecan (NSC609699), etoposide (NSC141540), doxorubicin (NSC123127), gemcitabine (NSC613327), 5-fluorouracil (NSC19893), paclitaxel (NSC125973), vemurafenib (NSC761431), panobinostat (NSC761190), R-306465 (JNJ-16241199; NSC773264), adavosertib (NSC754352), TP-3654 (NSC805149), carboplatin (NSC241240), KSQ-4279 (NSC840948), and staurosporine (NSC755774) were obtained from the National Cancer Institute (NCI) Developmental Therapeutics Program Chemical Repository (34). The FDA-approved anticancer drug set is available from the NCI Developmental Therapeutics Program. […] The stock solutions were prepared in dimethyl sulfoxide (DMSO, Sigma-Aldrich, St. Louis, MO, cat. D2650) at 800-fold the tested concentration and stored at -70 degrees C prior to their use. All drugs and investigational agents were tested over a range starting from a high concentration at or near the clinical Cmax and decreasing in half-log increments. If the clinical Cmax for an agent had not been determined, the highest concentration tested was 10 microM.
2.3 Cell Culture. All cells were maintained in an incubator at 37 degrees C and 5% CO2 with 95% humidity. The PDC lines were cultured according to standard operating procedures established by the NCI PDMR. All PDCs were thawed and cultured in Matrigel-coated flasks prepared with a working solution of 1X Ham's F-12 nutrient mix, without supplementation (Invitrogen, cat. 11765054), 100 U/mL penicillin-streptomycin (Invitrogen, cat. 15140122), and 2.5% Matrigel (Corning Inc., cat. 354248) for the first three passages. The 857933-349-R-J2-PDC line was cultured in 6C/Colon 1B media, which includes advanced DMEM/F-12 (Thermo Fisher Scientific, cat. 12634028), 10 mM HEPES (Thermo Fisher Scientific, cat. 15630080), 1X GlutaMAX supplement (Thermo Fisher Scientific, cat. 35050061), 0.1 mg/mL primocin (InvivoGen, cat. ant-pm-2), 10% defined fetal bovine serum, heat inactivated (HyClone Laboratories Inc., cat. SH30070.03HI), 50% L-WRN conditioned media (ATCC, cat. CRL-3276), 1.25 mM N-Acetyl-L-cysteine (Sigma-Aldrich, cat. A9165), 10 mM nicotinamide (Sigma-Aldrich, cat. N0636), 1X B-27 supplement (Thermo Fisher Scientific, cat. 17504044), 1X N-2 supplement (Thermo Fisher Scientific, cat. 17502048), 10 microM Y-27632 dihydrochloride (Tocris Bioscience, cat. 1254), and 50 ng/mL human EGF recombinant protein (Thermo Fisher Scientific, cat. PHG0311). The 485176-168-R4-J1-PDC line was cultured in Panc media, which includes all 6C/Colon 1B media components plus 100 ng/mL human FGF-10 (Thermo Fisher Scientific, cat. 100-26), 500 nM SB-431542 (Selleckchem, cat. S1067), and gastrin (Tocris, cat. 3006).
[…]

[1] = compound alone, run of 02/20/2024
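Further: spheroids exposed to drugs for seven days.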
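Wherever viability, T/C is given: 100% = DMSO vehicle control viability.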

Row | SMILES | IC50 (curve of compound) | IC50 [1] | IC50 (compound alone, run of 02/26/2024) | viability, T/C (compound 0.0316 µM) | viability, T/C (compound 0.1 µM) | viability, T/C (compound 0.316 µM) | viability, T/C (compound 1 µM) | viability, T/C (compound 3.16 µM) | viability, T/C (compound 10 µM) | viability, T/C (compound 0.000999 µM) | viability, T/C (compound 0.00316 µM) | viability, T/C (compound 0.00999 µM) | viability, T/C (compound 0.0999 µM)
1 | COc1cc(C2c3cc4c(cc3C(OC3OC5COC(C)OC5C(O)C3O)C3COC(=O)C23)OCO4)cc(OC)c1O (stereo unspecified) | > 10000 nM |  |  | 94.5% and 86% and 83.5% | 85% and 92% and 84.5% | 88% and 89.3% and 89.8% | 81.9% and 83.7% and 91% | 99% and 101% and 88.6% | 92.4% and 79.9% and 85% |  |  |  | 
2 | COc1ccc([C@@H](O)c2cc(-c3ncnc4cc(N5CCOCC5)ccc34)c(F)cc2Cl)nn1 | > 10000 nM |  |  | 91.6% and 98.8% and 86% | 81% and 98.4% and 55% | 95.6% and 97.8% and 80.1% | 75.1% and 80.2% and 68.1% | 75.5% and 68% and 68.3% | 61.6% and 65.6% and 59.3% |  |  |  | 
3 | COc1cccc2c1C(=O)c1c(O)c3c(c(O)c1C2=O)CC(O)(C(=O)CO)CC3OC1CC(N)C(O)C(C)O1 (stereo unspecified) | 3040 nM and > 10000 nM and 9440 nM |  |  | 90.2% and 99.5% and 87% | 90.8% and 78.6% and 69.9% | 84.7% and 99.6% and 86.4% | 67.4% and 66.3% and 80.7% | 49.4% and 58.4% and 58.3% | 44.2% and 70.7% and 49.6% |  |  |  | 
4 | Cc1[nH]c2ccc(F)cc2c1-c1nc2c3cccnc3c3ncccc3c2[nH]1 |  | 2.51 µM [middle of 8 runs] | 1.35 µM [middle of 4 runs] |  |  | 80.8% [middle of 12 runs] | 73.4% [middle of 12 runs] |  | 44.4% [middle of 12 runs] |  |  |  | 
5 | Cc1[nH]c2ccccc2c1CCNCc1ccc(/C=C/C(=O)NO)cc1 | 178 nM and 155 nM and 257 nM |  |  | 80.3% and 84% and 82.8% |  | 19.3% and 31.7% and 41.9% |  |  |  | 86.2% and 100% and 95.1% | 71% and 96.2% and 83.8% | 96.1% and 81.2% and 98.1% | 80.9% and 60.8% and 86.1%
6 | Cn1ncnc1[C@H]1c2n[nH]c(=O)c3cc(F)cc(c23)N[C@@H]1c1ccc(F)cc1 | > 316 nM |  |  | 80% and 83.1% and 87.4% |  | 102% and 89.6% and 80.9% |  |  |  | 108% and 94.2% and 85.9% | 84.1% and 111% and 82.8% | 97.9% and 83.5% and 81.7% | 108% and 84.9% and 87.8%
7 | Nc1ccn(C2OC(CO)C(O)C2(F)F)c(=O)n1 (stereo unspecified) | > 10000 nM |  |  | 86.2% and 88.9% and 100% | 76.2% and 97% and 92.5% | 76.6% and 97.1% and 85.7% | 69% and 83.3% and 72.7% | 83.3% and 79% and 97.7% | 71.6% and 68.4% and 75.5% |  |  |  | 
8 | O=C(NO)c1cnc(N2CCN(S(=O)(=O)c3ccc4ccccc4c3)CC2)nc1 | 432 nM and 479 nM and 397 nM |  |  | 87% and 88.3% and 112% | 108% and 125% and 89% | 68.1% and 77.6% and 63.9% | 1.97% and 0.86% and 8.3% | 0.67% and 0.79% and 4.97% | 1.35% and 1.12% and 3.62% |  |  |  | 
9 | O=c1[nH]cc(F)c(=O)[nH]1 | > 10000 nM |  |  | 98.2% and 108% and 102% | 71.6% and 81.3% and 94.7% | 89.2% and 90.9% and 103% | 88.4% and 88.3% and 106% | 84.1% and 90.3% and 83.7% | 101% and 97.9% and 113% |  |  |  | 

The next lines start with results.

Row | IC50 (curve of compound) | IC50 [1] | IC50 (compound alone, run of 02/26/2024) | SMILES | viability, T/C (compound 0.0316 µM) | viability, T/C (compound 0.1 µM) | viability, T/C (compound 0.316 µM) | viability, T/C (compound 1 µM) | viability, T/C (compound 3.16 µM) | viability, T/C (compound 10 µM) | viability, T/C (compound 0.000999 µM) | viability, T/C (compound 0.00316 µM) | viability, T/C (compound 0.00999 µM) | viability, T/C (compound 0.0999 µM)
10 | > 10000 nM |  |  | COc1ncnc(C2CC2)c1-c1ncc2cnn(Cc3ccc(-c4nc(C(F)(F)F)cn4C(C)C)cc3)c2n1 | 86% and 85.2% and 92% | 69% and 77.1% and 72.8% | 84.5% and 105% and 85.5% | 82% and 82.4% and 85.8% | 94.6% and 92.9% and 82.1% | 98% and 75.9% and 97.7% |  |  |  | 
11 | > 10000 nM |  |  | Cc1cccc(N(C)C(=O)C2C(O)CCN2c2nc(C)cc(C(F)(F)F)c2C#N)c1 (stereo unspecified) | 92.6% and 89.1% and 85.7% | 69.5% and 106% and 83.8% | 74.5% and 101% and 74.6% | 94% and 109% and 85.7% | 99.6% and 74.3% and 84.3% | 111% and 91.5% and 99.2% |  |  |  | 
12 |  | > 10000 nM |  | Cc1cnc(CNC(=O)c2c(=O)c3ccc(N4CCCN(C)CC4)nc3n3c2sc2ccccc23)cn1 |  |  |  | 85.5% [middle of 12 runs] | 74.2% [middle of 12 runs] | 68.8% [middle of 12 runs] |  |  |  | 
13 | > 10000 nM |  |  | O=C(c1cc(Cc2n[nH]c(=O)c3ccccc23)ccc1F)N1CCN(C(=O)C2CC2)CC1 | 98.7% and 82% and 96.7% | 74.7% and 85.1% and 87.7% | 99.8% and 90.6% and 79% | 93.7% and 103% and 84.8% | 82.7% and 91.9% and 88% | 94.1% and 79.9% and 97.9% |  |  |  | 
